This is an account of results in ChEMBL document CHEMBL1201862, “PubChem BioAssay data set” (2004).

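Each compound was tested at five concentrations against cells in 96-well plates for 48 hours. Here, GI50 denotes the concentration required for 50% inhibition of growth.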 Calls of active or inactive are those of the source. No stated cut-off is given here; in the data, active = GI50 up to about 1.1 µM and inactive = higher.

Some test systems named below: A549; EKVX; HCT-15; HOP-92; HT-29; LOX IMVI; MDA-MB-435; MOLT-4; Malme-3M; OVCAR-8; SF-295; SK-MEL-2; SK-MEL-5; SN12C; UACC-257; UACC-62; UO-31; HL-60; SF-539.
What all share (assay): NCI anticancer screen, dose series, 48 h

`CCOC(=O)Cc1c(C)c2ccc(OC(C)=O)c(OC(C)=O)c2oc1=O`: the GI50 with A549 is 21.9 µM (inactive); with EKVX, 23.1 µM (inactive); in the experiment on HCT-15, 18.7 µM; with HOP-92, 17.5 µM (inactive); in the experiment on HT-29 it was 29.6 µM (inactive); with LOX IMVI, 25.3 µM (inactive). For the same compound, the GI50 in the experiment with MDA-MB-435 was 28.1 µM (inactive); in the experiment with MOLT-4 it was 23.6 µM (inactive); with Malme-3M, 12.3 µM (inactive); in the experiment with OVCAR-8, 18.6 µM (inactive); in the experiment with SF-295, 36.7 µM (inactive); in the experiment with SK-MEL-2, 49.5 µM (inactive). For the same compound, the GI50 is 19.5 µM (inactive) with SK-MEL-5; 41.8 µM (inactive) with SN12C; 14.8 µM (inactive) in the experiment on UACC-257; 32.7 µM (inactive) with UACC-62; 13.9 µM (inactive) in the experiment on UO-31.
On to `CCC1OC(=O)CC(O)C(C)C(OC2OC(C)C(O)C(N(C)C)C2O)C(CC=O)CC(C)C(=O)/C=C/C2(C)OC2C1C` (configuration not stated), for which the GI50 is 33.8 µM (inactive) in the experiment with A549; 40.1 µM (inactive) with EKVX; 32.1 µM in the experiment on HCT-15; 23.6 µM (inactive) in the experiment with HL-60; 20.2 µM (inactive) in the experiment on HT-29; 16.8 µM (inactive) in the experiment on LOX IMVI. Moreover, the GI50 in the experiment with MDA-MB-435 was 27.7 µM (inactive); in the experiment on MOLT-4, 14.1 µM (inactive); with Malme-3M, 11.6 µM (inactive); in the experiment with OVCAR-8 it was 3.19 µM (inactive); in the experiment on SF-295, 67.9 µM (inactive); in the experiment with SF-539, 25.2 µM (inactive). For the same compound, the GI50 with SK-MEL-2 was 48.3 µM (inactive); in the experiment on SK-MEL-5 it was 7.03 µM (inactive); in the experiment with SN12C, 15.1 µM (inactive); in the experiment with UACC-257 it was 17.3 µM (inactive); with UACC-62, 19.8 µM (inactive).
Take `O=[N+]([O-])/C(C(Cl)=C(Cl)Cl)=C(\NCc1ccccc1)Sc1ccccc1`: the GI50 with A549 is 30.2 µM (inactive); with EKVX, 38.4 µM (inactive); in the experiment on HCT-15, 17.3 µM; in the experiment on HT-29, 38.9 µM (inactive); in the experiment on LOX IMVI, 13.7 µM (inactive); with MDA-MB-435 it was 19.4 µM (inactive). Further, the GI50 was > 100 µM (inactive) with MOLT-4; 16.8 µM (inactive) in the experiment on Malme-3M; 16.9 µM (inactive) in the experiment on OVCAR-8; 20.6 µM (inactive) in the experiment on SF-295; 19.9 µM (inactive) in the experiment with SF-539; 25.1 µM (inactive) with SK-MEL-2. The GI50 is 35.2 µM (inactive) in the experiment with SN12C, 33.9 µM (inactive) in the experiment on UACC-257, 30.4 µM (inactive) in the experiment on UACC-62 and 17.2 µM (inactive) in the experiment on UO-31.
As for `COC(=O)C(=CNC(N)=O)C(=O)OC`, the GI50 with A549 was > 100 µM (inactive); with EKVX, > 100 µM (inactive); with HCT-15, more than 100 µM; in the experiment on HOP-92, > 100 µM (inactive); in the experiment on HT-29, > 100 µM (inactive); in the experiment with LOX IMVI, > 100 µM (inactive). For the same compound, the GI50 in the experiment with MDA-MB-435, with MOLT-4, in the experiment on OVCAR-8, with SF-295, with SF-539 and in the experiment on SK-MEL-2 was > 100 µM (inactive) each time. Besides, the GI50 in the experiment with SK-MEL-5, in the experiment with SN12C, in the experiment on UACC-257, with UACC-62 and in the experiment with UO-31 was > 100 µM (inactive) throughout.
